Tests used:
b-Raf [1] = molecular target: T1, b-Raf (Homo sapiens, UniProt P15056, V600E); test: Raf cellular assay (phospho-Mek1/2 ELISA in A2058 cells); format: cell-based; conditions: Table 2; human melanoma A2058 cells (b-Raf mutation), Mek1/2 Ser217/221 phosphorylation, 1 hour incubation; read-out: pMEK IC50
T1 construct: endogenous in cells; host or cells: A2058 human melanoma cells
Procedure, shortened: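 A2058 melanoma cells (B-Raf mutant), seeded overnight in 10% FBS DMEM, were exposed to compounds (11-point 1:3 series, duplicate) for 1 h at 37 °C. Lysates were captured on anti-Mek1-coated plates and Mek1/2 Ser217/221 phosphorylation was read by anti-phospho-Mek1/2 ELISA, HRP/TMB, 450 nm.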

b-Raf [2] = molecular target: T2, b-Raf (Homo sapiens, UniProt P15056); test: Raf biochemical assay (in vitro kinase assay, 32-P transfer from ATP to Mek1); conditions: full-length wild type b-Raf, Mek1 substrate; for Ki: 25 μM ATP
T2 construct: Full-length wild type b-Raf is expressed in recombinant form and purified from bacterial or insect cells; made in house; host or cells: bacterial or insect cells
T2 sequence (P15056 whole entry): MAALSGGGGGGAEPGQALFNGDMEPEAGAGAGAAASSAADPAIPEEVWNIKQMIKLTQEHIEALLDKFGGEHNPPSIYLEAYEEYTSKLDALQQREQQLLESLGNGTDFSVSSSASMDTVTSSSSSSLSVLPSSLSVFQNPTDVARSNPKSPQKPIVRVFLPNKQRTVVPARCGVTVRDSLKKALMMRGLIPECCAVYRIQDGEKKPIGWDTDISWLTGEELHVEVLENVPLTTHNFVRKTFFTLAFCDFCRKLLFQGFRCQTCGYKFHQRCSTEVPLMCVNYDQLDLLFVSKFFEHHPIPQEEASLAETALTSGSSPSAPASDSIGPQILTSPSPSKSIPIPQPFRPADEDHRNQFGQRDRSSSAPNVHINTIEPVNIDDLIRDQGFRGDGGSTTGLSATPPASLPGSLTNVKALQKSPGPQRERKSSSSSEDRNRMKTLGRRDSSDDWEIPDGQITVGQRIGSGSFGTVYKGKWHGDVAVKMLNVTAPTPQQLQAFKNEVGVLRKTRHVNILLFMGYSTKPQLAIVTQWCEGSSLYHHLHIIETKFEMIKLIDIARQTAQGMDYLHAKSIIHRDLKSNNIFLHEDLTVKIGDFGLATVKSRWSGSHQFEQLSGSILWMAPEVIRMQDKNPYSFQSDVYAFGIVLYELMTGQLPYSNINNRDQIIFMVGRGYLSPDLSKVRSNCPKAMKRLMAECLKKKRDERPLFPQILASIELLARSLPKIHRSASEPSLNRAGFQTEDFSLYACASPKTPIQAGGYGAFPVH
Description: Compounds of the present invention were evaluated for potency against b-Raf using an in vitro kinase assay. Raf kinase activity is measured in vitro by determining transfer of radiolabeled 32-P phosphate from ATP to the specific Raf substrate Mek1. Full-length wild type b-Raf is expressed in recombinant form and purified from bacterial or insect cells. Recombinant Mek1 is purified from E. coli bacterial cells. In one assay format (designated G1), the full-length wild type Mek1 is used as the b-Raf substrate. In a second assay format (designated G2), the full-length K97R Mek1 mutant is used as the b-Raf substrate.
In vitro kinase assays are performed in solution containing the following; 50 mM Hepes (pH 7.4), 5 nM b-Raf, 0.8 μM Mek1, 10 mM MgCl2, 25 μM ATP, 0.002% (v/v) Tween-20, 5 μg/mL leupeptin, 1.2 mM DTT, 2% (v/v) DMSO, 0.2-1.0 μCi [γ-^32P]ATP per well.
The assays are performed in wells of a 96 well polypropylene round bottom plate, each well containing 43.5 μL assay mix and 1.5 μL inhibitor compound or DMSO vehicle. 15 μL of b-Raf mix is added and the plate is shaken on a plate shaker and preincubated for 10 minutes at ambient temperature. The reaction is started by addition of 15 μL ATP mix and shaking. The reaction is terminated after 40 minutes by addition of 25 μL 0.5 M EDTA (pH 7.4).
60 μL of the stopped reaction is transferred to a well of a 96-well nylon 66 Biodyne A membrane Silent Screen filter plate (Nalge/Nunc: 256081). The wells are filtered and washed five times with 0.85% phosphoric acid. The filter is placed in a tray with about 50 mL 0.85% phosphoric acid and gently rotated for 10 minutes on an orbital shaker. The procedure is repeated once with fresh 0.85% phosphoric acid. Five samples of 0.5 μL of ATP mix are also spotted onto filter paper for calculation of specific activity. The filters are air dried for one hour and sandwiched between cellophane wrap on an Amersham Biosciences Storage Phosphor Screen and developed at least over night. The image is read using a Molecular Dynamics Storm 840 phosphoimager. Volumes of spots are calculated using ImageQuant5.1.
Raf kinase activity is calculated from the specific activity of [32-P] ATP, 32-P incorporation into Mek1, and the concentration of b-Raf.

T1 sequence (P15056 whole entry V600E): as the sequence (P15056 whole entry) above, with V600E counted along it

| IC50 (b-Raf [1]) [nM] | inhibition at 1 µM (b-Raf [2]; @ 1 μM compound, read-out: b-Raf % inhib @ 1 μM) [%] | Ki (b-Raf [2]) [nM] | SMILES |
| --- | --- | --- | --- |
| 15 | 100 | < 0.1 | C[C@H](O)CNc1nccc(-c2cn(CC(F)F)nc2-c2cnc3[nH]cc(Cl)c3c2)n1 [Example E-2, (2S)-1-(4-(3-(3-chloro-1H-pyrrolo[2,3-b]pyridin-5-yl)-1-(2,2-difluoroethyl)-1H-pyrazol-4-yl)pyrimidin-2-ylamino)propan-2-ol] |
| 165 |  | 0.6 | Cc1[nH]c2ncc(-c3nn(C(C)C)cc3-c3ccnc(NC[C@H](C)O)n3)cc2c1Cl [Example E-3, (2S)-1-(4-(3-(3-chloro-2-methyl-1H-pyrrolo[2,3-b]pyridin-5-yl)-1-isopropyl-1H-pyrazol-4-yl)pyrimidin-2-ylamino)propan-2-ol] |
| 188 |  | 1.9 | C[C@H](O)CNc1nccc(-c2cn(CC3(C)COC3)nc2-c2cnc3[nH]cc(Cl)c3c2)n1 [Example E-4, (2S)-1-(4-(3-(3-chloro-1H-pyrrolo[2,3-b]pyridin-5-yl)-1-((3-methyloxetan-3-yl)methyl)-1H-pyrazol-4-yl)pyrimidin-2-ylamino)propan-2-ol] |
